From patent publication US20100160442A1, “FORMULATIONS FOR CANCER TREATMENT” (priority 2006, published 2010)
≈ marks a conversion by molar mass, not a printed value. Where “and” joins values, the source holds several entries; their conditions need not be identical. Equal entries are not always repeated.

Assay: Saturated solubility of BA in self emulsifying lipid (SELF) samples, UV 320 nm
Assay type: physicochemical
Description: Saturated Solubility Test for Liquid SELF Samples: 2 ml of each liquid SELF was measured into 8 ml screw cap glass bottle using a Finnpipette. Aliquots of 50 mg of the API were then added until the mixture appeared to be saturated. The mixtures were sonicated for 30 minutes, and then observed to see if saturation had been maintained. Aliquots of 25 mg of the API were further added to non-saturated samples while stirring; these were sonicated for a further 30 minutes. This process was repeated until saturation was attained and maintained after sonication.
The liquid samples were then placed in the Variomatic water bath at 25° C. and left to stir for two nights. Each of the SELF samples was purged with nitrogen gas after use to minimize oxidation.
The saturated liquid samples were centrifuged at a speed of 4000 rpm for 10 minutes at 25° C.
Saturated Solubility Test for Semi-Solid SELF Samples: Prior to dispensing, semi-solid lipids were melted in a dry oven at 60° C. The semi-solids were dispensed into screw cap bottles; aliquots of the API were added to attain and maintain saturation. The saturated semi-solids were left stirring at 60° C.
The following day the stirrer was switched off but heating was maintained at 60° C. for 1 hour. This was to allow the dispersed solid particles to sediment. 0.1 ml was taken from the top clear layer of each of the saturated semi-solid samples and diluted with acetonitrile.
UV Analysis: The saturated samples and the lipid vehicles were diluted with acetonitrile at the same ratio. The samples were diluted with acetonitrile to obtain an absorbance between 0.1 to 1. The absorbance of the diluted lipid vehicles were used as the baseline for the absorbance readings of the active sample. The diluted samples were scanned at a fixed wavelength of 320 nm. The concentration of the API was calculated using the E^11 value, derived from the API concentration in acetonitrile.
Saturated Solubility: Saturated solubility was carried out on the six SELF samples (Gattefosse) that were miscible with acetonitrile. These samples were stirred over two nights.
Saturated solubility of freshly prepared lipid samples: Saturated solubility was carried out on each of the freshly prepared semi-solid lipid samples as described above. The results in table 9-8 are based on equilibration of saturated samples over two nights.

## NC(=O)c1ccc(I)c([N+](=O)[O-])c1 [BA, 4-iodo-3-nitrobenzamide]
SELF 27A
  Solubility Enhancement vs. water: 1074
SELF 27A (Gattefosse, semi-solid), after 2 nights
  Mean Conc.: 215000 µg/mL
SELF 27A (Gattefosse, semi-solid), after 2 nights, listed as API
  Mean Conc.: 214730 µg/mL
SELF 27B
  Solubility Enhancement vs. water: 524
SELF 27B (Gattefosse, semi-solid), after 2 nights
  Mean Conc.: 105000 µg/mL
SELF 27D
  Solubility Enhancement vs. water: 699
SELF 27D (Gattefosse, liquid), after 2 nights
  Mean Conc.: 140000 µg/mL
SELF 27E
  Solubility Enhancement vs. water: 675 and 532
SELF 27E (Gattefosse, liquid), after 2 nights
  Mean Conc.: 107000 µg/mL
SELF 27F
  Solubility Enhancement vs. water: 804
SELF 27F (Gattefosse, liquid), after 2 nights
  Mean Conc.: 161000 µg/mL
SELF 27G
  Solubility Enhancement vs. water: 695
SELF 27G (Gattefosse, semi-solid), after 2 nights
  Mean Conc.: 139000 µg/mL
Water
  Mean Conc.: 200 µg/mL
Freshly prepared SELF F1, after 2 nights
  Mean Conc.: 185000 µg/mL
Freshly prepared SELF F1, after 2 nights, listed as API
  Mean Conc.: 184760 µg/mL
Freshly prepared SELF F3, after 2 nights
  Mean Conc.: 87000 µg/mL
Freshly prepared SELF F4, after 2 nights
  Mean Conc.: 42000 µg/mL
Freshly prepared SELF F5, after 2 nights
  Mean Conc.: 75000 µg/mL
Freshly prepared SELF F6, after 2 nights
  Mean Conc.: 76000 µg/mL
Freshly prepared SELF F7, after 2 nights
  Mean Conc.: 135000 µg/mL
water, read-out: Mean Conc.
  solubility: 200 µg/mL (≈ 685 µM)
